Data from PubChem BioAssay AID602191 (Broad Institute, 2012).
The source made the active and inactive calls.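 How the source made its calls: active means fitted curve reaches 40% activation at a concentration no higher than the top valid tested dose; inconclusive means flat fit between 30% and 70% activation, or poor fit; inactive means uptake decrease, flat fit within 30% of zero, the rest.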

Biological target: Scavenger receptor class B member 1 (Mus musculus) (UniProt Q61009)
Test: enhancers of DiI-HDL lipid transfer via SR-BI – cell-based, ldlA[mSR-BI] CHO, DiI fluorescence, cherry-pick, dose response (AID 602191);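 further: cell fluorescence from internalized DiI-labeled HDL after washing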;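 on AC40: potency of activators raising HDL uptake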;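 on activation (HDL uptake increase): 0% = median of DMSO wells and 100% = twice the DMSO signal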
Conditions: ldlA[mSR-BI] CHO cells, 3 h; for activation (HDL uptake increase): at 35 µM (top of the series); for AC40: DiI-HDL uptake fluorescence

Scavenger receptor class B member 1 (Mus musculus), sequence (Q61009 whole entry, looked up): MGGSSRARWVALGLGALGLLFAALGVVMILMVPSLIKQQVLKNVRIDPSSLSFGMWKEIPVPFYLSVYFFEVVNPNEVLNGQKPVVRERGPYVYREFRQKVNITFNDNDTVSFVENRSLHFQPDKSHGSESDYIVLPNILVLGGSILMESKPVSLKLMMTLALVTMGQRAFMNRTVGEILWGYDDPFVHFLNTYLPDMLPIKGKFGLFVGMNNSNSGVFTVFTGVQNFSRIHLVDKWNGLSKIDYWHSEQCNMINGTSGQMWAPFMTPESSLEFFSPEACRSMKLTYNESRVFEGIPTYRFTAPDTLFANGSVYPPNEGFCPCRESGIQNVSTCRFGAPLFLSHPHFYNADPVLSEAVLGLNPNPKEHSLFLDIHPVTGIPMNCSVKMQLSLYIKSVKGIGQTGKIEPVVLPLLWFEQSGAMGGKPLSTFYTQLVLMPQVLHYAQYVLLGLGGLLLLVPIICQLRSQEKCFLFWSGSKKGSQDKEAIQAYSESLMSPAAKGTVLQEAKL

| Structure (SMILES) | activation (HDL uptake increase) | AC40 |
| --- | --- | --- |
| N#Cc1ccc(OCCOCCNC2CCCC2)cc1 | 13.4% (inactive) |  |
| COc1ccc(N2C(=O)C(CC(=O)Nc3ccc(F)cc3)N(CCc3cccs3)C2=O)cc1 (configuration not stated) | -4.44% (inactive) |  |
| CCN(CC(=O)Nc1ccc(OC)cc1)C(=O)c1ccc(=O)n(Cc2ccccc2)n1 | -12.4% (inactive) |  |
| O=C(O)CCc1nnc(SCC(=O)Nc2cccc(C(F)(F)F)c2)[nH]c1=O | -1.57% (inactive) |  |
| CC(C)C[C@H](NC(=O)c1nc[nH]c1C(=O)NC1CCN(C(=O)OC(C)(C)C)CC1)C(=O)OC(C)(C)C | -3.21% (inactive) |  |
| CC[C@]12c3[nH]c4cc(-c5ccco5)ccc4c3CCN1C(=O)[C@@H](CC(=O)NC(C)(C)C)C[C@@H]2C(=O)N1CCN(C(=O)c2ccco2)CC1 | -20.6% (inactive) |  |
| CCN1CCN(C(CNS(=O)(=O)c2ccc(Br)cc2)c2cccnc2)CC1 (configuration not stated) | -1.44% (inactive) |  |
| O=C(COC(=O)C1CCN(/C=C/C(=O)C(F)(F)F)CC1)Nc1cccc(F)c1 | -7.38% (inactive) |  |
| O=C(CCCc1nc2ccccc2s1)NCc1ccccc1 | -3.71% (inactive) |  |
| Nc1nc(SCC(=O)OCc2ccccc2)[nH]c(=O)c1NC(=O)c1ccco1 | 4.16% (inactive) |  |
| CN1CCN(C(=O)c2ccccc2NC(=O)c2ccccc2Br)CC1 | -7.48% (inactive) |  |
| CC(Sc1ccc(S(=O)(=O)N(C)C)cn1)C(=O)NC1CCCC1 (configuration not stated) | -1.21% (inactive) |  |
| C=CCn1c(C(CCC(C)C)CC(C)(C)O)n[nH]c1=S (configuration not stated) | 7.72% (inactive) |  |
| Cc1ccc(N(CC(=O)NC2CCC(C)CC2)S(=O)(=O)c2cccnc2)cc1 (configuration not stated) | 6.17% (inactive) |  |
| CN(C)C(=O)CCc1ccc2c3c([nH]c2c1)[C@]1(CCC2CCCC2)[C@@H](C(=O)N2CCOCC2)C[C@H](CC(=O)NCC24CC5CC(CC(C5)C2)C4)C(=O)N1CC3 |  | > 35 µM (inactive) |
| C=CCn1c(SCC(=O)N(CC)C2CCS(=O)(=O)C2)nnc1-c1ccccc1 (configuration not stated) | -7.41% (inactive) |  |

| Structure (SMILES) | activation (HDL uptake increase) | AC40 |
| --- | --- | --- |
| O=C(COC(=O)c1ccc[nH]c1=O)Nc1cc(S(=O)(=O)N2CCCCCC2)ccc1Cl | -9.61% (inactive) |  |
| CN1CCN(C(=O)C2=C[C@@H](c3coc4ccccc4c3=O)C[C@@H](OCCCCO)O2)CC1 | -7.43% (inactive) |  |
| COc1cccc(CN2CCNC(=O)C2CC(=O)NCCCn2ccnc2)c1 (configuration not stated) | 13% (inactive) |  |
| Cn1c(=O)oc2cc(S(=O)(=O)NCCN3CCN(c4ccccc4)CC3)ccc21 | -5.09% (inactive) |  |
| COc1ccc(OC)c(S(=O)(=O)NCCCN2CCCC2=O)c1 |  | > 35 µM (inactive) |
| N#C/C(=C/c1cn(-c2ccccc2)nc1-c1cccc(OCc2ccccc2)c1)C(=O)NCCCn1ccnc1 | 12.2% (inactive) |  |
| O=C1N[C@@H](c2ccccc2)COC(=O)[C@H](Cc2ccc(F)cc2)CC/C=C/C[C@H]1CC(=O)N(CCO)Cc1ccccc1 | -5.36% (inactive) |  |
| CCOc1ccc(S(=O)(=O)NCCc2cn3ccccc3n2)cc1 | 2.16% (inactive) |  |
| COc1ccccc1OCC(=O)OCc1cc(-c2ccco2)on1 | -5.82% (inactive) |  |
| CCCCC/C=C\C[C@H](O)/C=C/c1cccc(C[C@H](O)CCCCO)n1 | -14% (inactive) |  |
| CCOC(=O)C1CCCN(C(=O)c2cc(S(=O)(=O)N3CCCCCC3)ccc2OC)C1 (configuration not stated) | -9.78% (inactive) |  |
| O=C(NNC(=S)Nc1cccc2ccccc12)c1cccc(Br)c1 | -30.7% (inactive) |  |
| O=C(CC1C(=O)NCCN1Cc1ccc(Cl)c(F)c1)NC1CCCCC1 (configuration not stated) | -11.9% (inactive) |  |
| O=C(Cn1c(=O)cnc2ccccc21)NNC(=O)c1ccc(Cl)cc1 | -5.85% (inactive) |  |
| NNC(=O)Cn1nc(Cc2ccccc2)n(N)c1=O | -4.95% (inactive) |  |
| CCOC(=O)N1CCC(N2C(=O)c3ccccc3C2Nc2cc(OC)c(OC)c(OC)c2)CC1 (configuration not stated) | 13% (inactive) |  |
